Measurements as given in ChEMBL document CHEMBL2029272, “7-Azabicyclo[2.2.1]heptane as a scaffold for the development of selective sigma-2 (σ2) receptor ligands” (Bioorg Med Chem Lett, 2012).
pKi: −log10 of the molar value.

Key:
[1] = target: Sigma non-opioid intracellular receptor 1 (Rattus norvegicus, UniProt Q9R0C9); assay: Displacement of [3H](+)-pentazocine from sigma1 receptor in rat brain homogenate; type: tissue-based
[2] = Displacement of [3H]DTG from sigma2 receptor in […]; type: cell-based; conditions: pc-12
[3] = target: T1, Muscarinic acetylcholine receptor M5 (Homo sapiens, UniProt P08912); assay: Inhibition of M5 muscarinic receptor
T1 sequence (P08912 whole entry): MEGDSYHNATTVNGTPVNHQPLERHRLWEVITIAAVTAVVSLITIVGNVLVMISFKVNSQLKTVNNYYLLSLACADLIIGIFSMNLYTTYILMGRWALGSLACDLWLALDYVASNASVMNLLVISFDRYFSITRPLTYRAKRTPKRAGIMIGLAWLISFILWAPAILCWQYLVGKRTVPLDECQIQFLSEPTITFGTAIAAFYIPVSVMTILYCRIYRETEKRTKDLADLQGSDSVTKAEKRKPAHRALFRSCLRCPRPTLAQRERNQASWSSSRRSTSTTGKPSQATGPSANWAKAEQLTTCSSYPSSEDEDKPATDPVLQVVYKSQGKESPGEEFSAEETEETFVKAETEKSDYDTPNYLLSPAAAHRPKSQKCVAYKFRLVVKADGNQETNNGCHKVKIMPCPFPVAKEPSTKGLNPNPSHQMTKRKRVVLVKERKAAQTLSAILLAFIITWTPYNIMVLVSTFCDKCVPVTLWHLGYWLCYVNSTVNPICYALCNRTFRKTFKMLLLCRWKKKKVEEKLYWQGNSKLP

[4] = target: T2, Alpha-2A adrenergic receptor (Homo sapiens) (UniProt P08913); assay: Inhibition of alpha2A adrenergic receptor at 10 uM
T2 sequence (whole entry): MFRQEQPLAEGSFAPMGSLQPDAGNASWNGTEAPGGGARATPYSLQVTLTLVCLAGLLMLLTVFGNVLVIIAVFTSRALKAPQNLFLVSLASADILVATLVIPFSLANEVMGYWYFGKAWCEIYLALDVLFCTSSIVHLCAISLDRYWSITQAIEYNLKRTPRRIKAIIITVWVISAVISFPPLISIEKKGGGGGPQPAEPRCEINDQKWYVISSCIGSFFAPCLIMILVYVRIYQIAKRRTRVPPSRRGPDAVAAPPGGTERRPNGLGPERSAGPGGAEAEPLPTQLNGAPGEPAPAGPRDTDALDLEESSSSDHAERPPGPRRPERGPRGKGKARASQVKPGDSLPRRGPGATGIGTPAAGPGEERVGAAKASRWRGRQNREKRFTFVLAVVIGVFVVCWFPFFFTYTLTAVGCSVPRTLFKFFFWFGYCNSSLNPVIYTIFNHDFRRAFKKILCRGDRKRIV

[5] = target: Beta-3 adrenergic receptor (Homo sapiens) (UniProt P13945); assay: Inhibition of beta3 adrenergic receptor at 10 uM
Sequence of Beta-3 adrenergic receptor (Homo sapiens) (P13945 whole entry, looked up): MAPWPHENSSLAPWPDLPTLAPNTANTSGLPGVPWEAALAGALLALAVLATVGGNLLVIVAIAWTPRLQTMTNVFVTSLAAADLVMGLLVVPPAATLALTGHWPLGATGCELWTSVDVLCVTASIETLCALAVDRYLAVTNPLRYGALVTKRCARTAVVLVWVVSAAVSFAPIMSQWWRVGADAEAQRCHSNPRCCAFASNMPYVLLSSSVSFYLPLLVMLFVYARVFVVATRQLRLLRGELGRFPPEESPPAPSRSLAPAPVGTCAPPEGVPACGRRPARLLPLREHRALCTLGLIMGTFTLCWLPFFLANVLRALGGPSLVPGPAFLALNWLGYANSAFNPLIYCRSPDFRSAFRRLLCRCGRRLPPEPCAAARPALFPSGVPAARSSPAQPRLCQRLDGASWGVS

[6] = organism: Rattus norvegicus; assay: Inhibition of BZP receptor in rat brain at 10 uM; type: tissue-based
[7] = target: D(1A) dopamine receptor (Homo sapiens) (UniProt P21728); assay: Inhibition of D1 dopamine receptor at 10 uM
Sequence of D(1A) dopamine receptor (Homo sapiens) (P21728 whole entry): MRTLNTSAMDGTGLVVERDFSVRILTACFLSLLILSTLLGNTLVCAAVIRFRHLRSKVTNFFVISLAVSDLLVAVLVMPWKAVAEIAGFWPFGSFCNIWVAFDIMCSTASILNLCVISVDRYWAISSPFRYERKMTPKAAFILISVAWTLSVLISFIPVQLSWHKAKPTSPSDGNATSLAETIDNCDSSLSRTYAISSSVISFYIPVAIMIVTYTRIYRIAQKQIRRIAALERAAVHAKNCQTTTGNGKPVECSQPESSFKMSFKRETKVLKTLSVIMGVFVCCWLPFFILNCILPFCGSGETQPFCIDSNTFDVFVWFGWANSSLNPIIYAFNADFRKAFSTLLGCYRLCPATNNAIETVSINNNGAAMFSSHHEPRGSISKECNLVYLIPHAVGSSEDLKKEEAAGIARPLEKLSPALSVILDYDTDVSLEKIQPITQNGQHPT

[8] = target: Histamine H1 receptor (Homo sapiens) (UniProt P35367); assay: Inhibition of H1 receptor at 10 uM
Sequence of Histamine H1 receptor (Homo sapiens) (P35367 whole entry): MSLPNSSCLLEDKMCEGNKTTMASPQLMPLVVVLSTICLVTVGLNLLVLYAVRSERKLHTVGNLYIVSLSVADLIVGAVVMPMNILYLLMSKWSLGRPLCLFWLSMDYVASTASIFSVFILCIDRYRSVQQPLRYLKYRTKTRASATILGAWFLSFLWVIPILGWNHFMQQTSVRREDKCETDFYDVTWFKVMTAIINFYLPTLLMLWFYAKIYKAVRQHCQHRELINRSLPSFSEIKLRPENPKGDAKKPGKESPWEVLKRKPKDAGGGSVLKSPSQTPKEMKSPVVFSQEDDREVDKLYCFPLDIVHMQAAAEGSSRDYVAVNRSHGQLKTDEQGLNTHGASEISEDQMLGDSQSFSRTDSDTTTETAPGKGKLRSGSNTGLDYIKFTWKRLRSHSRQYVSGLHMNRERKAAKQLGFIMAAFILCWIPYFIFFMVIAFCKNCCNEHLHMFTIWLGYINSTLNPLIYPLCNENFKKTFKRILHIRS

[9] = target: Histamine H2 receptor (Homo sapiens) (UniProt P25021); assay: Inhibition of H2 receptor at 10 uM
Sequence of Histamine H2 receptor (Homo sapiens) (P25021 whole entry): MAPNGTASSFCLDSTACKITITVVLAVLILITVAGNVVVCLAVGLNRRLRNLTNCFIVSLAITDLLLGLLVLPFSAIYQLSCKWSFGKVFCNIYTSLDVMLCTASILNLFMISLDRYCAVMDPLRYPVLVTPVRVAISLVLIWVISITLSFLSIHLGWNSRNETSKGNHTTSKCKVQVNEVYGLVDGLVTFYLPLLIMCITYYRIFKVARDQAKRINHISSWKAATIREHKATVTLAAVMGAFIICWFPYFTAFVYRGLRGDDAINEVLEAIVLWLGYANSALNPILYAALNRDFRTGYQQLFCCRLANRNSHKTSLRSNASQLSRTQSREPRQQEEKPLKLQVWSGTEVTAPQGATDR

[10] = target: Histamine H4 receptor (Homo sapiens) (UniProt Q9H3N8); assay: Inhibition of H4 receptor at 10 uM
Sequence of Histamine H4 receptor (Homo sapiens) (Q9H3N8 whole entry): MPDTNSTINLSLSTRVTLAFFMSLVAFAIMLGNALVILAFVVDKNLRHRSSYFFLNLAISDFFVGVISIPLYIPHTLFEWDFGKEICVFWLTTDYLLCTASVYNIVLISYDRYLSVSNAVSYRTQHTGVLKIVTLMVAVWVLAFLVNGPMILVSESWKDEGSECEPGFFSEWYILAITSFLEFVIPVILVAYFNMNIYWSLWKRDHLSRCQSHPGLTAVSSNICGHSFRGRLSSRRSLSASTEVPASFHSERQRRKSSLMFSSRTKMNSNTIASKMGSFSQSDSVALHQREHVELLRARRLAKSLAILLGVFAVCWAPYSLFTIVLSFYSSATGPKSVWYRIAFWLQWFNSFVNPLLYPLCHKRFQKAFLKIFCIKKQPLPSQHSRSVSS

[11] = target: T3, 5-hydroxytryptamine receptor 1A (Homo sapiens) (UniProt P08908); assay: Inhibition of 5-HT1A receptor at 10 uM
T3 sequence (whole entry): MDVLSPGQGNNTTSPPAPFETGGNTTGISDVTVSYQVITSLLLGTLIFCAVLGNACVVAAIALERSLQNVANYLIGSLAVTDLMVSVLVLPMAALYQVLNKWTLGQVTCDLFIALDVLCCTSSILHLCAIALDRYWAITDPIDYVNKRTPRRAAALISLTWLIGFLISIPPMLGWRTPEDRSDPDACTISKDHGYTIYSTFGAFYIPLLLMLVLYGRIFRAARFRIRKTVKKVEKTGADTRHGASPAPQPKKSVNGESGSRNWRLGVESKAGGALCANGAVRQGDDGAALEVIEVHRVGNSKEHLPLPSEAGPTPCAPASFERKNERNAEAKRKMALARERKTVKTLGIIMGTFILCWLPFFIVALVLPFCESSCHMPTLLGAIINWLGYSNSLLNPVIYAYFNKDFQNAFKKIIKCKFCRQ

[12] = target: 5-hydroxytryptamine receptor 1E (Homo sapiens) (UniProt P28566); assay: Inhibition of 5-HT1E receptor at 10 uM
Sequence of 5-hydroxytryptamine receptor 1E (Homo sapiens) (P28566 whole entry): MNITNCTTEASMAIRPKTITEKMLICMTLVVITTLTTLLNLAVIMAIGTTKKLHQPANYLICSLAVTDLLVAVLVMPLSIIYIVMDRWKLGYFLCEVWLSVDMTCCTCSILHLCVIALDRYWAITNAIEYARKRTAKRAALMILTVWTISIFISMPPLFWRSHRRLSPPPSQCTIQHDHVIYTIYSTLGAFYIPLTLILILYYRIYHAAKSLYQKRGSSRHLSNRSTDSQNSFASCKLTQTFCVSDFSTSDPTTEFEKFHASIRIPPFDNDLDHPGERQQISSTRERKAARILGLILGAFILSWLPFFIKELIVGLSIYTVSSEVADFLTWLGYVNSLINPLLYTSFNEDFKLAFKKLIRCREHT

[13] = target: T4, 5-hydroxytryptamine receptor 2C (Homo sapiens) (UniProt P28335); assay: Inhibition of 5-HT2C receptor at 10 uM
T4 sequence (whole entry): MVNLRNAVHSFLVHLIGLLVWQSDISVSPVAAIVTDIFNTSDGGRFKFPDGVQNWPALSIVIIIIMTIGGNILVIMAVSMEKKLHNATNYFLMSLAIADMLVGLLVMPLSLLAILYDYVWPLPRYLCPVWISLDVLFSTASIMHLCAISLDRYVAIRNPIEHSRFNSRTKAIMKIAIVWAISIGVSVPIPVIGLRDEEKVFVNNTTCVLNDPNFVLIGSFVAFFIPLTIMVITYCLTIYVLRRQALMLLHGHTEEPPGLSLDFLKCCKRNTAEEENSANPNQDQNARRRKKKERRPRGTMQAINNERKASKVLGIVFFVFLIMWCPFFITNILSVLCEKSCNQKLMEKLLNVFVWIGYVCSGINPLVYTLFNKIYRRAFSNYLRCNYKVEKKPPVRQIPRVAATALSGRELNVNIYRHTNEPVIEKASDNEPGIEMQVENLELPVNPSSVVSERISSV

[14] = target: 5-hydroxytryptamine receptor 5A (Homo sapiens) (UniProt P47898); assay: Inhibition of 5-HT5A receptor at 10 uM
Sequence of 5-hydroxytryptamine receptor 5A (Homo sapiens) (P47898 whole entry): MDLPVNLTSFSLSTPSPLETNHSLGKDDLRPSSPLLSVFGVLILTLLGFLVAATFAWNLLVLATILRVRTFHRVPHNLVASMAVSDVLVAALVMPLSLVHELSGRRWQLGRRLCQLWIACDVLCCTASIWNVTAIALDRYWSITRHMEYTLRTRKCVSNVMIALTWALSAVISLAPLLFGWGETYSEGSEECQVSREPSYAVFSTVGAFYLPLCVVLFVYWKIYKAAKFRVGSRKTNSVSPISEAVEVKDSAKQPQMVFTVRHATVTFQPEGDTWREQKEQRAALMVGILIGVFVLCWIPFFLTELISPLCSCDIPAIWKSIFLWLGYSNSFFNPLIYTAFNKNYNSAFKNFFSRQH

[15] = target: 5-hydroxytryptamine receptor 6 (Homo sapiens) (UniProt P50406); assay: Inhibition of 5-HT6 receptor at 10 uM
Sequence of 5-hydroxytryptamine receptor 6 (Homo sapiens) (P50406 whole entry): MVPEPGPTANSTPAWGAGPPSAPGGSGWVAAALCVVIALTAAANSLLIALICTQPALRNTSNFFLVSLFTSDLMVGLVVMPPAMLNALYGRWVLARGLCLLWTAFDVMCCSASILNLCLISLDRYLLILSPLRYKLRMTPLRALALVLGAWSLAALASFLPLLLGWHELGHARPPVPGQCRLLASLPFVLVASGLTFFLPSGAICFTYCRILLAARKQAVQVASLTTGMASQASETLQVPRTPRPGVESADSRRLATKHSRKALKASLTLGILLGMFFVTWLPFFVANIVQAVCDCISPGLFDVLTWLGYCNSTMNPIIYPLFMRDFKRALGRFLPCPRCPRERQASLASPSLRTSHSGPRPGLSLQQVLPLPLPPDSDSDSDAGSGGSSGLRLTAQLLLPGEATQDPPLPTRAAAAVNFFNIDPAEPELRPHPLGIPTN

[16] = target: 5-hydroxytryptamine receptor 7 (Homo sapiens) (UniProt P34969); assay: Inhibition of 5-HT7 receptor at 10 uM
Sequence of 5-hydroxytryptamine receptor 7 (Homo sapiens) (P34969 whole entry): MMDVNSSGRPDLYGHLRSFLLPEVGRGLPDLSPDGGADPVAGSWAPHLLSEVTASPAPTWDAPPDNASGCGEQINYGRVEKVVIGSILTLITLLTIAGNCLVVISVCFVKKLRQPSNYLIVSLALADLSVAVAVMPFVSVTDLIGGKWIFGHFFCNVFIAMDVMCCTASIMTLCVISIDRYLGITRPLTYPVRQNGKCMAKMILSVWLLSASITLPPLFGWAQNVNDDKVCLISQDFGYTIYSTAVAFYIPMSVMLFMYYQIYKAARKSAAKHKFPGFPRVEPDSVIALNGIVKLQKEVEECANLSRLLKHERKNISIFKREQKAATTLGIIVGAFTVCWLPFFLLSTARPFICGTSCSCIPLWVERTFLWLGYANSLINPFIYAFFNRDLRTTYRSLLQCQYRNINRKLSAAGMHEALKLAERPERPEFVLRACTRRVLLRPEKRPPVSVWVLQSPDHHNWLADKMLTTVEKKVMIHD

[17] = target: Kappa-type opioid receptor (Homo sapiens) (UniProt P41145); assay: Inhibition of kappa opioid receptor at 10 uM
Sequence of Kappa-type opioid receptor (Homo sapiens) (P41145 whole entry): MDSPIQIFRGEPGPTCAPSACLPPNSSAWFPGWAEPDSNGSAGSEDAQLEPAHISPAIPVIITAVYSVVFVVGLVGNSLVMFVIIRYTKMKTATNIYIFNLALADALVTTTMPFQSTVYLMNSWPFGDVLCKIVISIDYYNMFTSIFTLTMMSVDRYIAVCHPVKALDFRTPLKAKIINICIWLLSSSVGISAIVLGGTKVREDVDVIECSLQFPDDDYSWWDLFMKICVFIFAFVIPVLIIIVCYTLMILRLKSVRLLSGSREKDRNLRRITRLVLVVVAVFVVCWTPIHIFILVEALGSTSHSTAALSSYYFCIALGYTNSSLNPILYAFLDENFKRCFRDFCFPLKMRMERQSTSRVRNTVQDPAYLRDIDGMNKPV

Sequence of Sigma non-opioid intracellular receptor 1 (Q9R0C9 whole entry): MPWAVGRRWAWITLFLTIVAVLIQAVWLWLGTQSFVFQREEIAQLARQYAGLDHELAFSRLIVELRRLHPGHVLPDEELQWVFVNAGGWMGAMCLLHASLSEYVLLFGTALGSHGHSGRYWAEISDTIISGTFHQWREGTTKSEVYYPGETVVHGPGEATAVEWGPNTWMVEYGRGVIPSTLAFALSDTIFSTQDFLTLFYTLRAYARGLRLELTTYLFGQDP

SMILES | pKi [1] | pKi [2] | pKi [3] | inhibition [4] [%] | inhibition [5] [%] | inhibition [6] [%] | inhibition [7] [%] | inhibition [8] [%] | inhibition [9] [%] | inhibition [10] [%] | inhibition [11] [%] | inhibition [12] [%] | inhibition [13] [%] | inhibition [14] [%] | inhibition [15] [%] | inhibition [16] [%] | inhibition [17] [%]
C1CCC(CN2CCCC2)CC1 | 7.29 | 6.39 | 5.57 | < 50 | < 50 | < 50 | < 50 | < 50 | < 50 | < 50 | < 50 | < 50 | < 50 | < 50 | < 50 | < 50 | < 50
C1CC2CCC1N2CC12C3C4C5C3C1C5C42 (stereo unspecified) | 8.15 | 7.74 | 6.10 | < 50 | < 50 | < 50 | < 50 | < 50 | < 50 | < 50 | < 50 | < 50 | < 50 | < 50 | < 50 | < 50 | < 50
C1CCC(CN2C3CCC2CC3)CC1 | 7.66 | 7.74 | 5.57 | < 50 | < 50 | < 50 | < 50 | < 50 | < 50 | < 50 | < 50 | < 50 | < 50 | < 50 | < 50 | < 50 | < 50
